According to the supplement of paper PMC10307832:

Assays:
Test in all cases: relative viability (nuclei count vs DMSO), 5 days (fraction); higher = more cells survive
Selisistat + Pictilisib = compound: C1CC(C2=C(C1)C3=C(N2)C=CC(=C3)Cl)C(=O)N [Selisistat] + CS(=O)(=O)N1CCN(Cc2cc3nc(-c4cccc5[nH]ncc45)nc(N4CCOCC4)c3s2)CC1 [Pictilisib] (partner 1 µM)
How it was run: (§1)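 Values are medians from duplicate plates. Each reflects relative viability, defined as the nuclei count of treated wells over that of vehicle wells. Lung cancer cell lines in 1536-well plates were pin-tool dosed one day after seeding with one drug alone or with a fixed anchor-drug dose plus five library-drug doses (not always all listed) in √10 steps, then fixed, stained and imaged at 4× after 5 days.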

Selisistat + Lapatinib = compound: C1CC(C2=C(C1)C3=C(N2)C=CC(=C3)Cl)C(=O)N [Selisistat] + CS(=O)(=O)CCNCc1ccc(-c2ccc3ncnc(Nc4ccc(OCc5cccc(F)c5)c(Cl)c4)c3c2)o1 [Lapatinib] (partner 2 µM)
How it was run: as §1

Serdemetan + Alpelisib = compound: c1ccc2c(CCNc3ccc(Nc4ccncc4)cc3)c[nH]c2c1 [Serdemetan] + Cc1nc(NC(=O)N2CCC[C@H]2C(N)=O)sc1-c1ccnc(C(C)(C)C(F)(F)F)c1 [Alpelisib] (partner 2 µM)
How it was run: as §1

Serdemetan + Lapatinib = compound: c1ccc2c(CCNc3ccc(Nc4ccncc4)cc3)c[nH]c2c1 [Serdemetan] + CS(=O)(=O)CCNCc1ccc(-c2ccc3ncnc(Nc4ccc(OCc5cccc(F)c5)c(Cl)c4)c3c2)o1 [Lapatinib] (partner 2 µM)
How it was run: as §1

| Cell Line | relative viability (Selisistat + Pictilisib; first compound 0.4 µM) | relative viability (Selisistat + Pictilisib; first compound 1.265 µM) | relative viability (Selisistat + Pictilisib; first compound 4 µM) | relative viability (Selisistat + Pictilisib; first compound 12.65 µM) | relative viability (Selisistat + Pictilisib; first compound 40 µM) | relative viability (Selisistat + Lapatinib; first compound 0.4 µM) | relative viability (Selisistat + Lapatinib; first compound 1.265 µM) | relative viability (Selisistat + Lapatinib; first compound 4 µM) | relative viability (Selisistat + Lapatinib; first compound 12.65 µM) | relative viability (Selisistat + Lapatinib; first compound 40 µM) | relative viability (Serdemetan + Alpelisib; first compound 0.04 µM) | relative viability (Serdemetan + Alpelisib; first compound 0.1265 µM) | relative viability (Serdemetan + Alpelisib; first compound 0.4 µM) | relative viability (Serdemetan + Alpelisib; first compound 1.265 µM) | relative viability (Serdemetan + Alpelisib; first compound 4 µM) | relative viability (Serdemetan + Lapatinib; first compound 0.04 µM) | relative viability (Serdemetan + Lapatinib; first compound 0.1265 µM) | relative viability (Serdemetan + Lapatinib; first compound 0.4 µM) | relative viability (Serdemetan + Lapatinib; first compound 1.265 µM) | relative viability (Serdemetan + Lapatinib; first compound 4 µM) |
| --- | --- | --- | --- | --- | --- | --- | --- | --- | --- | --- | --- | --- | --- | --- | --- | --- | --- | --- | --- | --- |
| HCC-44 | 0.633 | 0.551 | 0.595 | 0.599 | 0.436 | 0.983 | 1.16 | 1.01 | 1.02 | 1.13 | 0.714 | 0.772 | 0.75 | 0.532 | 0.636 | 0.875 | 0.99 | 0.862 | 0.913 | 0.873 |
| HCC-827 | 0.86 | 0.91 | 1.03 | 0.962 | 1.04 | 0.192 | 0.189 | 0.203 | 0.182 | 0.186 | 0.924 | 0.934 |  | 0.723 | 0.6 | 0.168 | 0.178 |  | 0.188 | 0.173 |
| NCI-H2347 | 0.374 | 0.714 | 0.294 | 0.541 | 0.56 | 1.06 | 0.943 | 0.482 | 0.882 | 0.983 | 0.936 | 1.02 | 1.01 | 0.866 | 0.703 | 0.8 | 0.938 | 0.781 | 0.812 | 0.872 |
| PC-14 | 0.699 | 0.66 | 0.729 | 0.664 | 0.824 | 0.371 | 0.356 | 0.218 | 0.294 | 0.342 | 0.954 | 0.93 | 0.784 | 0.852 | 0.825 | 0.335 | 0.3 | 0.295 | 0.259 | 0.251 |
| NCI-H1651 | 0.595 | 0.596 | 0.48 | 0.553 | 0.516 | 0.785 | 0.769 | 0.749 | 0.789 | 0.939 | 0.889 | 0.78 | 0.65 | 0.371 | 0.213 | 0.575 | 0.65 | 0.49 | 0.271 | 0.275 |
| HARA | 0.492 | 0.366 | 0.348 | 0.307 | 0.401 | 0.726 | 0.691 | 0.71 | 0.778 | 0.904 | 0.783 | 0.819 | 0.741 |  | 0.391 | 0.653 | 0.773 | 0.68 |  | 0.604 |
| NCI-H1650 | 0.692 | 0.59 | 0.516 | 0.589 | 0.548 | 0.918 | 0.74 | 0.579 | 0.685 | 0.693 |  |  |  |  |  | 0.718 | 0.768 | 0.599 | 0.846 | 0.558 |
| NCI-H1395 | 0.617 | 0.609 | 0.564 | 0.656 | 0.557 | 1.09 | 0.973 | 1 | 0.91 | 0.883 | 0.863 | 0.903 | 1.12 | 0.912 | 0.564 | 1.04 | 1.07 | 1.34 | 0.932 | 0.717 |
| LU99A | 0.336 | 0.35 | 0.404 | 0.373 | 0.299 | 1.06 | 0.913 | 1.06 | 0.914 | 0.962 | 0.516 | 0.576 | 0.342 | 0.175 | 0.17 | 1.03 | 0.927 | 1.07 | 0.363 | 0.229 |
| NCI-H1355 | 0.406 | 0.427 |  | 0.5 | 0.514 | 0.923 | 1 |  | 1.02 | 1.04 | 0.952 | 0.786 | 0.752 | 0.875 | 0.774 | 0.938 | 1.13 | 0.911 | 1.02 | 0.973 |
| HCC-78 | 0.253 | 0.229 | 0.172 | 0.196 | 0.181 | 0.811 | 0.891 | 0.448 | 0.589 | 0.658 | 0.337 | 0.36 | 0.349 | 0.364 | 0.262 | 0.769 | 0.666 | 0.323 | 0.448 | 0.78 |
| NCI-H1563 | 0.559 | 0.639 | 0.649 | 0.605 | 0.623 | 1.03 | 0.95 | 0.881 | 0.825 | 0.921 | 0.89 | 0.893 | 0.931 | 0.815 | 0.763 | 0.637 | 0.892 | 0.527 | 0.799 | 0.723 |
| HCC-15 | 0.813 | 0.775 |  | 0.814 | 0.793 | 0.878 | 0.864 |  | 0.867 | 1.01 | 0.924 | 0.825 | 0.856 | 0.531 | 0.579 | 0.819 | 0.847 | 0.84 | 0.657 | 0.637 |
| EKVX | 0.451 | 0.432 | 0.39 | 0.442 | 0.53 | 0.213 | 0.243 | 0.185 | 0.252 | 0.215 | 0.876 | 0.911 | 0.804 | 0.676 | 0.619 | 0.193 | 0.19 | 0.201 | 0.18 | 0.168 |
